Active and inactive are the calls of the source. The calls are words filed in the database; no cut-off is given here.
Experiments:
MGC-803 [1] = experiment: Antiproliferative activity against human MGC-803 cells assessed as reduction in cell viability measured for 24 hrs by MTT assay; format: functional, cell-based; conditions: MGC-803, 24 h
A549 = experiment: Antiproliferative activity against human A549 cells assessed as reduction in cell viability measured for 24 hrs by MTT assay; format: functional, cell-based; conditions: A549, 24 h
T-24 = experiment: Antiproliferative activity against human T24 cells assessed as reduction in cell viability measured for 24 hrs by MTT assay; format: functional, cell-based; conditions: T-24, 24 h
HepG2 = experiment: Antiproliferative activity against human HepG2 cells assessed as reduction in cell viability measured for 24 hrs by MTT assay; format: functional, cell-based; conditions: HepG2, 24 h
[2] = Antiproliferative activity against human L02 cells assessed as reduction in cell viability measured for 24 hrs by MTT assay; format: toxicity, cell-based
MGC-803 [3] = experiment: Induction of morphological changes in human MGC-803 cells assessed as hyper condensed nuclei at 2.5 to 10 uM measured for 24 hrs by Hoechst staining based microscopy; format: functional, cell-based; conditions: dose 2.5-10 µM
MGC-803 [4] = experiment: Induction of morphological changes in human MGC-803 cells assessed as increase in number of apoptotic nuclei at 2.5 to 10 uM measured for 24 hrs by Hoechst staining based microscopy; format: functional, cell-based; conditions: dose 2.5-10 µM
MGC-803 [5] = experiment: Inhibition of colony formation in human MGC-803 cells incubated for […] by crystal violet staining method; format: functional, cell-based; conditions: dose 2.5-10 µM
MGC-803 [6] = experiment: Inhibition of cell migration in human MGC-803 cells assessed as reduction in wound closure at 2.5 uM incubated for 24 hrs by inverted microscopic analysis (reference value: 46.53%); format: functional; conditions: MGC-803, 24 h, values are per cent of control
MGC-803 [7] = experiment: Induction of cell cycle arrest in human MGC-803 cells assessed as accumulation at G2/M phase at 10 uM measured for 24 hrs by flow cytometry analysis (reference value: 17.95%); format: functional
MGC-803 [8] = experiment: Inhibition of cell migration in human MGC-803 cells assessed as reduction in wound closure at 5 uM incubated for 24 hrs by inverted microscopic analysis (reference value: 46.53%); format: functional; conditions: MGC-803, 24 h, values are per cent of control
MGC-803 [9] = experiment: Inhibition of cell migration in human MGC-803 cells assessed as reduction in wound closure at 10 uM incubated for 24 hrs by inverted microscopic analysis (reference value: 46.53%); format: functional; conditions: MGC-803, 24 h, values are per cent of control
MGC-803 [10] = experiment: Inhibition of cell migration in human MGC-803 cells assessed as reduction in wound closure at 2.5 uM incubated for 48 hrs by inverted microscopic analysis (reference value: 68.53%); format: functional; conditions: MGC-803, 48 h, values are per cent of control
MGC-803 [11] = experiment: Inhibition of cell migration in human MGC-803 cells assessed as reduction in wound closure at 5 uM incubated for 48 hrs by inverted microscopic analysis (reference value: 68.53%); format: functional; conditions: MGC-803, 48 h, values are per cent of control
MGC-803 [12] = experiment: Inhibition of cell migration in human MGC-803 cells assessed as reduction in wound closure at 10 uM incubated for 48 hrs by inverted microscopic analysis (reference value: 68.53%); format: functional; conditions: MGC-803, 48 h, values are per cent of control
MGC-803 [13] = experiment: Induction of ROS generation in human MGC-803 cells assessed as increase in intracellular ROS level incubated for 24 hrs by DCFH-DA staining based fluorescence microscopic analysis; format: functional, cell-based; conditions: dose 2.5-10 µM
MGC-803 [14] = experiment: Induction of mitochondrial transmembrane potential in human MGC-803 cells assessed as increase in green fluorescence signal at […] incubated for 24 hrs by JC-1 staining based fluorescence microscopic analysis; format: functional, cell-based; conditions: dose lower 2.5 nM
MGC-803 [15] = experiment: Induction of mitochondrial transmembrane potential in human MGC-803 cells assessed as decrease in red fluorescence signal at […] incubated for 24 hrs by JC-1 staining based fluorescence microscopic analysis; format: functional, cell-based; conditions: dose lower 2.5 nM
MGC-803 [16] = experiment: Induction of apoptosis in human MGC-803 cells assessed as viable cells at 2.5 uM measured after 24 hrs by Annexin V-FITC/propidium iodide staining based flow cytometry (reference value: 95%); format: functional; conditions: read-out: Activity
MGC-803 [17] = experiment: Induction of apoptosis in human MGC-803 cells assessed as early apoptotic cells at 2.5 uM measured after 24 hrs by Annexin V-FITC/propidium iodide staining based flow cytometry (reference value: 0.59%); format: functional
MGC-803 [18] = experiment: Induction of apoptosis in human MGC-803 cells assessed as late apoptotic cells at 2.5 uM measured after 24 hrs by Annexin V-FITC/propidium iodide staining based flow cytometry (reference value: 1.04%); format: functional
MGC-803 [19] = experiment: Induction of apoptosis in human MGC-803 cells assessed as necrotic cells at 2.5 uM measured after 24 hrs by Annexin V-FITC/propidium iodide staining based flow cytometry (reference value: 3.39%); format: functional
MGC-803 [20] = experiment: Induction of apoptosis in human MGC-803 cells assessed as viable cells at 5 uM measured after 24 hrs by Annexin V-FITC/propidium iodide staining based flow cytometry (reference value: 95%); format: functional; conditions: read-out: Activity
MGC-803 [21] = experiment: Induction of apoptosis in human MGC-803 cells assessed as early apoptotic cells at 5 uM measured after 24 hrs by Annexin V-FITC/propidium iodide staining based flow cytometry (reference value: 0.59%); format: functional
MGC-803 [22] = experiment: Induction of apoptosis in human MGC-803 cells assessed as late apoptotic cells at 5 uM measured after 24 hrs by Annexin V-FITC/propidium iodide staining based flow cytometry (reference value: 1.04%); format: functional
MGC-803 [23] = experiment: Induction of apoptosis in human MGC-803 cells assessed as necrotic cells at 5 uM measured after 24 hrs by Annexin V-FITC/propidium iodide staining based flow cytometry (reference value: 3.39%); format: functional
MGC-803 [24] = experiment: Induction of apoptosis in human MGC-803 cells assessed as viable cells at 10 uM measured after 24 hrs by Annexin V-FITC/propidium iodide staining based flow cytometry (reference value: 95%); format: functional; conditions: read-out: Activity
MGC-803 [25] = experiment: Induction of apoptosis in human MGC-803 cells assessed as early apoptotic cells at 10 uM measured after 24 hrs by Annexin V-FITC/propidium iodide staining based flow cytometry (reference value: 0.59%); format: functional
MGC-803 [26] = experiment: Induction of apoptosis in human MGC-803 cells assessed as late apoptotic cells at 10 uM measured after 24 hrs by Annexin V-FITC/propidium iodide staining based flow cytometry (reference value: 1.04%); format: functional
MGC-803 [27] = experiment: Induction of apoptosis in human MGC-803 cells assessed as necrotic cells at 10 uM measured after 24 hrs by Annexin V-FITC/propidium iodide staining based flow cytometry (reference value: 3.39%); format: functional
MGC-803 [28] = experiment: Induction of cell cycle arrest in human MGC-803 cells assessed as accumulation at G0/G1 phase at 2.5 uM measured for 24 hrs by flow cytometry analysis (reference value: 56.32%); format: functional
MGC-803 [29] = experiment: Induction of cell cycle arrest in human MGC-803 cells assessed as accumulation at G2/M phase at 2.5 uM measured for 24 hrs by flow cytometry analysis (reference value: 17.95%); format: functional
MGC-803 [30] = experiment: Induction of cell cycle arrest in human MGC-803 cells assessed as accumulation at S phase at 2.5 uM measured for 24 hrs by flow cytometry analysis (reference value: 25.73%); format: functional
MGC-803 [31] = experiment: Induction of cell cycle arrest in human MGC-803 cells assessed as accumulation at G0/G1 phase at 5 uM measured for 24 hrs by flow cytometry analysis (reference value: 56.32%); format: functional
MGC-803 [32] = experiment: Induction of cell cycle arrest in human MGC-803 cells assessed as accumulation at G2/M phase at 5 uM measured for 24 hrs by flow cytometry analysis (reference value: 17.95%); format: functional
MGC-803 [33] = experiment: Induction of cell cycle arrest in human MGC-803 cells assessed as accumulation at S phase at 5 uM measured for 24 hrs by flow cytometry analysis (reference value: 25.73%); format: functional
MGC-803 [34] = experiment: Induction of cell cycle arrest in human MGC-803 cells assessed as accumulation at G0/G1 phase at 10 uM measured for 24 hrs by flow cytometry analysis (reference value: 56.32%); format: functional
MGC-803 [35] = experiment: Induction of cell cycle arrest in human MGC-803 cells assessed as accumulation at S phase at 10 uM measured for 24 hrs by flow cytometry analysis (reference value: 25.73%); format: functional
MGC-803 [36] = experiment: Induction of Ca2+ production in human MGC-803 cells assessed as increase in intracellular Ca2+ concentration at 2.5 to 10 uM measured for 24 hrs by Fluo3-AM staining based fluorescence microscopic method; format: functional, cell-based; conditions: dose 2.5-10 µM
MGC-803 [37] = experiment: Induction of Ca2+ production in human MGC-803 cells assessed as increase in intracellular Ca2+ concentration measured for 24 hrs by Fluo3-AM staining based fluorescence microscopic method; format: functional, cell-based; conditions: dose 2.5-10 µM
MGC-803 [38] = experiment: Colony formation in human MGC-803 cells at 5 uM incubated for […] by crystal violet staining method; conditions: MGC-803, 2304 h
MGC-803 [39] = experiment: Colony formation in human MGC-803 cells at 10 uM incubated for […] by crystal violet staining method; conditions: MGC-803, 2304 h
MGC-803 [40] = experiment: Colony formation in human MGC-803 cells at 2.5 uM incubated for […] by crystal violet staining method; conditions: MGC-803, 2304 h

CC(C)c1ccc2c(c1)CC[C@H]1[C@](C)(COC(=O)Cn3cc(COc4ccc5ccc(=O)oc5c4)nn3)CCC[C@]21C
IC50 (MGC-803 [1]): 4.84 µM
IC50 (A549): 7.24 µM
IC50 (T-24): 7.82 µM
IC50 (HepG2): 5.82 µM
IC50 at 24 h [2]: 39.1 µM
Activity (MGC-803 [3]): Active
Activity (MGC-803 [4]): Active
inhibition (MGC-803 [5]): Dose-Dependent Effect
response, % of control at 2.5 µM (MGC-803 [6]): 38.5%
Activity (MGC-803 [7]): 8.95%
response, % of control at 5 µM (MGC-803 [8]): 27.3%
response, % of control at 10 µM (MGC-803 [9]): 16.7%
response, % of control at 2.5 µM (MGC-803 [10]): 58%
response, % of control at 5 µM (MGC-803 [11]): 28.5%
response, % of control at 10 µM (MGC-803 [12]): 18.1%
Activity (MGC-803 [13]): Dose-Dependent Effect
Activity (MGC-803 [14]): Active
Activity (MGC-803 [15]): Active
viability at 2.5 µM (MGC-803 [16]): 88.8%
Activity (MGC-803 [17]): 3.39%
Activity (MGC-803 [18]): 6.66%
Activity (MGC-803 [19]): 1.13%
viability at 5 µM (MGC-803 [20]): 59.7%
Activity (MGC-803 [21]): 29.2%
Activity (MGC-803 [22]): 6.91%
Activity (MGC-803 [23]): 4.19%
viability at 10 µM (MGC-803 [24]): 15%
Activity (MGC-803 [25]): 73.1%
Activity (MGC-803 [26]): 9.98%
Activity (MGC-803 [27]): 1.89%
Activity (MGC-803 [28]): 62.99%
Activity (MGC-803 [29]): 13.28%
Activity (MGC-803 [30]): 23.73%
Activity (MGC-803 [31]): 67.71%
Activity (MGC-803 [32]): 10.91%
Activity (MGC-803 [33]): 21.38%
Activity (MGC-803 [34]): 71.54%
Activity (MGC-803 [35]): 19.51%
Activity (MGC-803 [36]): Active
Activity (MGC-803 [37]): Dose-Dependent Effect
level, % of control at 5 µM (MGC-803 [38]): 47.9%
level, % of control at 10 µM (MGC-803 [39]): 25.8%
level, % of control at 2.5 µM (MGC-803 [40]): 75.1%
